Laboratory results: patent US20210386367A1, “DEVICES AND SYSTEMS FOR GASTROINTESTINAL MICROBIOME DETECTION AND MANIPULATION” (Progenity, Inc., priority 2018, published 2021)
In brackets after ≈: the same amount, converted by molar mass. Where two headings read alike, the source gives them in different places.

Tests used:
Format in all cases: cell-based
[1] = test system: Enterococcus faecalis clinical isolates; assay: MIC distribution against clinical isolates; conditions: 50 E. faecalis isolates
Text: (§1) As used herein, “minimum inhibitory concentration” or “MIC” refers to the lowest concentration of an antimicrobial agent, for example, an antimicrobial agent as described herein, required to inhibit the growth of an organism.
(§2) Many susceptibility testing methods are known in the art and can be used as described herein (see, e.g., Jorgensen and Ferraro (2009) Clinical Infectious Diseases 49:1749-1755; and Maurer et al. (2017) Infectious Disease Reports 9:6839; the entire contents of each of the foregoing are incorporated herein by reference). For example, antimicrobial susceptibility can be determined using conventional culture based methods such as the broth or agar dilution test. In these dilution tests, the bacterial isolate of interest is inoculated onto different media that include serial dilutions of an antimicrobial agent, and incubated under appropriate conditions (e.g., overnight at 37° C.) to allow for growth to occur. Following the incubation period, the media is examined to determine bacterial growth. The lowest concentration of antibiotic that prevents growth represents the minimal inhibitory concentration (MIC). Broth dilution tests can be miniaturized and mechanized allowing for reproducibility and high throughput.

[2] = test system: Staphylococcus aureus clinical isolates; assay: MIC distribution against clinical isolates; conditions: 50 S. aureus isolates
Text: as §1, §2

[3] = test system: Viridans group Streptococcus; assay: Broth microdilution MIC, 15 clinical isolates; conditions: for Mode: modal MIC
Protocol: (§3) Minimal inhibitory concentration (MIC) values were determined by broth microdilution or agar dilution in accordance with guidelines from the Clinical and Laboratory Standards Institute (CLSI; (1) “Methods for Dilution Antimicrobial Susceptibility Tests for Bacteria That Grow Aerobically; Approved Standard; 11th ed.” CLSI standard M07-A11, 2018; (2) “Performance Standards for Antimicrobial Susceptibility Testing; Twenty-Eighth Informational Supplement,” CLSI document M100-S28, 2018; and (3) “Methods for Antimicrobial Susceptibility Testing of Anaerobic Bacteria; Approved Standard—Eighth Edition,” CLSI document M11-A8, 2012).
(§4) Tested aerobically by broth microdilution: • Escherichia coli, n=50 • Klebsiella spp., n=50 • Pseudomonas aeruginosa, n=50 • Streptococcus spp., n=50 • Staphylococcus aureus, n=50 • Enterococcus faecalis, n=50 • Enterobacter aerogenes, n=50 • Proteus mirabilis, n=50
(§5) Broth microdilution testing of aerobic bacteria was conducted in cation-adjusted Mueller Hinton broth (MHBII). For testing streptococci, lysed horse blood (LHB) was added to MHBII broth at a final concentration of 3%. Where LHB was used, it was added after filtering.
(§6) Broth microdilution susceptibility testing in 96-well microplates was conducted in accordance with CLSI methods (1) and (2). Automated liquid handlers were used to conduct serial dilutions and liquid transfers, including the Multidrop 384 (Labsystems, Helsinki, Finland), Biomek 2000, and the Biomek FX (Beckman Coulter, Fullerton, Calif.). All wells in columns 2 through 12 of a standard 96-well microdilution plate (Costar 3795) were filled with 150 μL of the appropriate diluent. Then, 300 μL of the test agents were added to the wells of column 1 of the plates at 100× the highest final concentration to be tested. Serial two-fold dilutions were made across the rows through column 11 using the Biomek 2000. The wells of column 12 contained no drug and served as the growth control wells. This plate served as the “mother plate” from which MIC assay plates or “daughter plates” were made.
(§7) The daughter plates were loaded with 190 μL per well of the appropriate medium using the Multidrop 384. The daughter plates were created using the Biomek FX which transferred 2 μL of drug solution from each well of a mother plate to each corresponding well of the daughter plate in a single step. A standardized inoculum of each test organism was prepared per CLSI methods (1) to equal a 0.5 McFarland standard, followed by a dilution of 1:20 for aerobes and 1:10 for anaerobes. The plates were then inoculated with 10 μL of the diluted inoculum using the Biomek 2000 from low to high drug concentration, resulting in a final concentration of approximately 5×10^5 CFU/mL per well. An un-inoculated plate was incubated in parallel for each medium for the purpose of assessing solubility of the drug in the test media.
(§8) Inoculated plates were stacked 3 or 4 high, covered with a sterile lid on the top plate, placed into boxes with CO2 planchets (streptococci) or plastic bags (all other isolates). Plates were incubated at 35° C. for 16-24 hr in ambient air for aerobes or for 42-48 hr in the anaerobic environment of the Bactron II anaerobe chamber (Sheldon Manufacturing Co.; Cornelius, Oreg.). Following incubation, the microplates were removed from the incubator and viewed from the bottom using a plate viewer. The MIC values were read and recorded as the lowest concentration of drug that inhibited visible growth of the organism as per CLSI methods (1) and (2).

Staphylococcus aureus = assay: Broth microdilution MIC, 50 clinical isolates (28 MRSA)
Protocol: as §3, §4, §5, §6, §7, §8

[4] = test system: Streptococcus pyogenes clinical isolates; assay: MIC distribution against clinical isolates
Text: (§9) As used herein, “minimum inhibitory concentration” or “MIC” refers to the lowest concentration of an antimicrobial agent, for example, an antimicrobial agent as described herein, required to inhibit the growth of an organism. […] “MIC90” represents the MIC value at which ≥90% of the strains within a test population are inhibited; the 90th percentile.
as §2

[5] = test system: Viridans group Streptococci clinical isolates; assay: MIC distribution against clinical isolates; conditions: 15 Viridans group Streptococci isolates
Text: as §9, §2

Enterococcus faecalis = assay: Broth microdilution MIC, 50 clinical isolates
Protocol: as §3, §4, §5, §6, §7, §8

[6] = 15 Viridans group Streptococci clinical isolates
[7] = 15 Viridans group Streptococci clinical isolates, MXF by FDA breakpoints
[8] = MIC 0.015 μg/mL, 19 S. pyogenes isolates
[9] = MIC 0.03 μg/mL, 19 S. pyogenes isolates
[10] = MIC 0.06 μg/mL, 19 S. pyogenes isolates
[11] = MIC 0.008 μg/mL, 19 S. pyogenes isolates
[12] = MIC ≤0.004 μg/mL, 19 S. pyogenes isolates

CO/N=C(\C(=O)N[C@@H]1C(=O)N2C(C(=O)O)=C(CSc3nc(=O)c(=O)[nH]n3C)CS[C@H]12)c1csc(N)n1 [ceftriaxone]
Cumulative percentage of isolates inhibited at MIC ([1]; MIC 1 μg/mL): 2.0% | Number of test isolates at MIC ([1]; MIC 1 μg/mL): 1 | Cumulative percentage of isolates inhibited at MIC ([1]; MIC 16 μg/mL): 4.0% | Number of test isolates at MIC ([1]; MIC 16 μg/mL): 1 | Cumulative percentage of isolates inhibited at MIC ([1]; MIC 64 μg/mL): 10.0% | Number of test isolates at MIC ([1]; MIC 64 μg/mL): 3 | Cumulative percentage of isolates inhibited at MIC ([1]; MIC >64 μg/mL): 100.0% | Number of test isolates at MIC ([1]; MIC >64 μg/mL): 45 | Number of test isolates at MIC ([2]; MIC 0.008 μg/mL): 0 | Cumulative percentage of isolates inhibited at MIC ([2]; MIC 2 μg/mL): 6.0% | Number of test isolates at MIC ([2]; MIC 2 μg/mL): 3 | Cumulative percentage of isolates inhibited at MIC ([2]; MIC 4 μg/mL): 38.0% | Number of test isolates at MIC ([2]; MIC 4 μg/mL): 16 | Cumulative percentage of isolates inhibited at MIC ([2]; MIC 8 μg/mL): 44.0% | Number of test isolates at MIC ([2]; MIC 8 μg/mL): 3 | Cumulative percentage of isolates inhibited at MIC ([2]; MIC 32 μg/mL): 52.0% | Number of test isolates at MIC ([2]; MIC 32 μg/mL): 4 | Cumulative percentage of isolates inhibited at MIC ([2]; MIC 64 μg/mL): 56.0% | Number of test isolates at MIC ([2]; MIC 64 μg/mL): 2 | Number of test isolates at MIC ([2]; MIC >16 μg/mL): 2 | Cumulative percentage of isolates inhibited at MIC ([2]; MIC >64 μg/mL): 100.0% | Number of test isolates at MIC ([2]; MIC >64 μg/mL): 22 | MIC50 [3, 6]: 0.06 µg/mL (≈ 0.108 µM) | MIC90 [3, 6]: 0.5 µg/mL (≈ 0.902 µM) | MIC range [3, 6]: 0.008 to 1 µg/mL | % S [3, 7]: 100% | MIC50 ([3]; Streptococcus, read-out: MIC50): 0.06 µg/mL (≈ 0.108 µM) | MIC90 ([3]; Streptococcus, read-out: MIC90): 0.5 µg/mL (≈ 0.902 µM) | Mode [3, 6]: 0.06 µg/mL | Mode (Staphylococcus aureus): >64 µg/mL | MIC50 (Staphylococcus aureus; Staphylococcus aureus, read-out: MIC50): 32 µg/mL (≈ 57.7 µM) | MIC90 (Staphylococcus aureus; Staphylococcus aureus, read-out: MIC90): > 64 µg/mL | MIC90 (Staphylococcus aureus; listed as CTR): >64 µg/mL | Cumulative percentage of isolates inhibited at MIC [4, 8]: 84.2% | Number of test isolates at MIC [4, 8]: 16 | Cumulative percentage of isolates inhibited at MIC [4, 9]: 94.7% | Number of test isolates at MIC [4, 9]: 2 | Cumulative percentage of isolates inhibited at MIC [4, 10]: 100.0% | Number of test isolates at MIC [4, 10]: 1 | Cumulative percentage of isolates inhibited at MIC ([5]; MIC 0.008 μg/mL): 6.7% | Number of test isolates at MIC ([5]; MIC 0.008 μg/mL): 1 | Cumulative percentage of isolates inhibited at MIC ([5]; MIC 0.015 μg/mL): 20.0% | Number of test isolates at MIC ([5]; MIC 0.015 μg/mL): 2 | Cumulative percentage of isolates inhibited at MIC ([5]; MIC 0.03 μg/mL): 33.3% | Number of test isolates at MIC ([5]; MIC 0.03 μg/mL): 2 | Cumulative percentage of isolates inhibited at MIC ([5]; MIC 0.06 μg/mL): 66.7% | Number of test isolates at MIC ([5]; MIC 0.06 μg/mL): 5 | Cumulative percentage of isolates inhibited at MIC ([5]; MIC 0.5 μg/mL): 93.3% | Number of test isolates at MIC ([5]; MIC 0.5 μg/mL): 1 | Cumulative percentage of isolates inhibited at MIC ([5]; MIC 1 μg/mL): 100.0% | Number of test isolates at MIC ([5]; MIC 1 μg/mL): 1 | Mode (Enterococcus faecalis): >64 µg/mL | MIC50 (Enterococcus faecalis; Enterococcus faecalis, read-out: MIC50): > 64 µg/mL | MIC90 (Enterococcus faecalis; Enterococcus faecalis, read-out: MIC90): > 64 µg/mL | MIC50 (Enterococcus faecalis; listed as CTR): >64 µg/mL | MIC90 (Enterococcus faecalis; listed as CTR): >64 µg/mL

Penicillin
MIC50 [3, 6]: 0.03 µg/mL | MIC90 [3, 6]: 1 µg/mL | MIC range [3, 6]: 0.008 to 1 µg/mL | % I [3, 7]: 40% ^ | % S [3, 7]: 60% | Mode [3, 6]: 0.015 µg/mL | Cumulative percentage of isolates inhibited at MIC [4]: 100.0% | Number of test isolates at MIC [4]: 1 | Cumulative percentage of isolates inhibited at MIC [4, 11]: 94.7% | Number of test isolates at MIC [4, 11]: 8 | Cumulative percentage of isolates inhibited at MIC [4, 12]: 52.6% | Number of test isolates at MIC [4, 12]: 10 | Cumulative percentage of isolates inhibited at MIC ([5]; MIC 0.008 μg/mL): 6.7% | Number of test isolates at MIC ([5]; MIC 0.008 μg/mL): 1 | Cumulative percentage of isolates inhibited at MIC ([5]; MIC 1 μg/mL): 100.0%
